Reference: patent US10561646B2, “EGFR inhibitor and pharmaceutically acceptable salt and polymorph thereof, and use thereof” (SHANGHAI HAIYAN PHARMACEUTICAL TECHNOLOGY CO., LTD., priority 2015, dated 2020)
“Also recorded” adds a separate entry of the source. Like-named read-outs stand apart in the source and are kept apart here.

What was measured:
NIH3T3 cells = assay: Cytotoxicity against NIH3T3 cells, MTT assay; format: cell-based; settings: Mus musculus, 72 h incubation
H1975 cells [1] = assay: Activities of EGFR T790M inhibitor on cells by ELISA, H1975; format: cell-based; settings: Homo sapiens, NCI-H1975
H1975 cells [2] = assay: Cytostatic activity by MTT method, H1975; format: cell-based
A431 cells [3] = assay: Activities on cells by ELISA, A431 (EGF stimulated); format: cell-based; settings: Homo sapiens, A-431
A431 cells [4] = assay: Cytostatic activity by MTT method, A431; format: cell-based
[5] = In vivo test of rats, pharmacokinetics after oral gavage; design: species or system SD rats; settings: rat, oral gavage 5 mg/kg; for Area under the curve AUC / Half-life T1/2: plasma
[6] = Solid phase stability experiment (XRPD, HPLC, TGA after one week); format: physicochemical; settings: for Purity (%): HPLC; for Weight loss (%): TGA; for crystal transition: XRPD
Procedure: An appropriate amount of samples were weighed and stored at 25° C./60% RH and 40° C./75% RH (unsealed), respectively. Another set of samples were sealed and kept as a control at 5° C. at the same time. All samples were characterized by XRPD, HPLC and TGA one week later, and the crystal form, purity and weight loss were tested.

[7] = Hygroscopicity / DVS test; format: physicochemical; settings: for moisture absorbed: humidity increased to 80% RH at 25° C.
Procedure: Dynamic Vapor Sorption (DVS) curve: collected on DVS Intrinsic SMS (Surface Measurement Systems). The relative humidity at 25° C. is corrected with the deliquescent points of LiCl, Mg (NO3)2 and KCl.
The rate of weight loss increases when the humidity is reduced to 20% RH at 25° C.
The DVS test was performed on crystal form II sample at a constant temperature of 25° C.
In order to assess the stability of anhydrous crystal form I and hydrate crystal form II under different humidity conditions, DVS assay was performed on samples of anhydrous crystal form I and hydrate crystal form II at constant 25° C.
When the humidity reaches 20% RH, a turning point appears in the isothermal map of DVS, which is caused by the transition from anhydrous crystal form I to hydrate form II according to the XRPD comparison of the samples before and after the DVS assay shown in FIG. 32. The actual moisture absorbed is less than the moisture content of crystal form II sample due to the slow solid phase transition rate.

[8] = Suspension competition test between crystal forms; format: physicochemical; settings: for stability relationship crystal form II / IV: acetone/H2O (aw 0.6), about 5 minutes
Procedure: Firstly, the suspension of maleate crystal form C-1 in acetone was prepared at two temperature respectively, and filtered after balancing for about one hour.
In order to further confirm the stability relationship between anhydrous crystal form I and hydrate crystal form II under different water activity conditions at room temperature, the mixture of crystal form I and crystal form II was suspended and stirred in acetone/H2O solvent system with different water activities (aw—0.2/0.4/0.6/0.8).
In order to study the stability relationship between different hydrate crystal form II and IV at room temperature to 50° C., a suspension competition test was set up in aqueous system at room temperature and 50° C. respectively. Firstly, the free base suspension in acetone/H2O (aw—0.6) was prepared at room temperature and 50° C. respectively. After balancing at the corresponding temperature for about 1 hour, the suspension was filtered to obtain the near saturated solution at the corresponding temperature. An equal quantity of crystal form II and IV samples (about 6 mg each) was added to 0.8 ml of saturated solution to form a suspension which was magnetically stirred (−800 rpm) at room temperature and 50° C. for about 5 minutes, and sampled for XRPD test.

[9] = Storage of crystal form C-1 at 80° C. for 24 hours (XRPD, HPLC); format: physicochemical
[10] = Dynamic solubility experiment in water, SGF, FaSSIF, FeSSIF; format: physicochemical; settings: thermodynamic from solid, room temperature
EGFR WT kinase = target: T1, EGFR WT kinase (Homo sapiens, UniProt P00533); assay: Wild type EGFR kinase inhibition test (z-lyte); format: biochemical
T1 construct: purchased Invitrogen PV3872

[11] = room temperature, crude solubility

T1 sequence (P00533 25-1210): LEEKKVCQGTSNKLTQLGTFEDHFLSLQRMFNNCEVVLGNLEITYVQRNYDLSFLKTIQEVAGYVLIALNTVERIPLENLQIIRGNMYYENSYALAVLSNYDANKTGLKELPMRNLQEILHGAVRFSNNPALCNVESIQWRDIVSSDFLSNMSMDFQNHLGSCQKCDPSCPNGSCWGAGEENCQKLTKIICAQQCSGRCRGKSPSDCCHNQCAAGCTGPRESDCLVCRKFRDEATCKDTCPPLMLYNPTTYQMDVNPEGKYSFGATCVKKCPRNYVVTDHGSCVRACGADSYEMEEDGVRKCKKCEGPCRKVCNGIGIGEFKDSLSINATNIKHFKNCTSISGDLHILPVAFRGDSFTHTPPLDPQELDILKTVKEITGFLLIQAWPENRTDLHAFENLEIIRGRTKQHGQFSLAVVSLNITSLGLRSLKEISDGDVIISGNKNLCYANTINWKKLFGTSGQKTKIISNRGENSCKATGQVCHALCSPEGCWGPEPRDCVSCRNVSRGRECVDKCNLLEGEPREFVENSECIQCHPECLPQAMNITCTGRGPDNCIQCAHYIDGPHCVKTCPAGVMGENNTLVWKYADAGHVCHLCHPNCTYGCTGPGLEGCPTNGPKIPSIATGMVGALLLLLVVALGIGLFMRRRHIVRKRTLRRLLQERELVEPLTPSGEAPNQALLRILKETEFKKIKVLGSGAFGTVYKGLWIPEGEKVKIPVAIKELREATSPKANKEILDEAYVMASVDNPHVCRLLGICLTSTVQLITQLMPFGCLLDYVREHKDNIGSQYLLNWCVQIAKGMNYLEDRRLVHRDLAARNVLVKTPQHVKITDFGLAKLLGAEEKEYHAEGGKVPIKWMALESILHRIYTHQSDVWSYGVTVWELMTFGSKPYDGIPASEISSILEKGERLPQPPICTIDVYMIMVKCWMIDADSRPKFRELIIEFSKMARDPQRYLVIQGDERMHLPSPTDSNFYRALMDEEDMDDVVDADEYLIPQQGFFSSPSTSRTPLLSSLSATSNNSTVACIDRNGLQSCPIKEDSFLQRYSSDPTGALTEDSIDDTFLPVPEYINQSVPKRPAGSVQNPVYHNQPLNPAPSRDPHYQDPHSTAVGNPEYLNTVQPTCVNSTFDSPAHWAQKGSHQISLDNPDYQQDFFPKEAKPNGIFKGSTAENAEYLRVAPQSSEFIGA

Row | Molecule | Maximum plasma concentration Cmax [5] | Area under the curve AUC [5] | Half-life T1/2 [5] | Purity (%) ([6]; 5° C. (control), sealed) | Weight loss (%) ([6]; 5° C. (control), sealed) | Weight loss (%) ([6]; 25° C./60% RH, unsealed) | crystal transition ([6]; 25° C./60% RH, unsealed) | Weight loss (%) ([6]; 40° C./75% RH, unsealed) | crystal transition ([6]; 40° C./75% RH, unsealed) | also measured
1 | CN(C)C/C=C/C(=O)Nc1cc2c(Nc3ccc(F)c(Cl)c3)ncnc2cc1O[C@H]1CCOC1 [BIBW2992] | – | – | – | – | – | – | – | – | – | IC50 (NIH3T3 cells): 2750 nM
2 | C=CC(=O)Nc1cc(Nc2nccc(-c3cn(C)c4ccccc34)n2)c(OC)cc1N(C)CCN(C)C [comparative compound 1] | – | – | – | – | – | – | – | – | – | IC50 (H1975 cells [1]): 29 nM; IC50 (NIH3T3 cells): 3550 nM; IC50 (H1975 cells [2]; Homo sapiens, NCI-H1975, 72 h incubation): 13 nM; IC50 (A431 cells [3]): […]; IC50 (A431 cells [4]; Homo sapiens, A-431, 72 h incubation): […]
3 | C=CC(=O)Nc1cc(Nc2ncc(F)c(-c3cnn(C)c3)n2)c(OC)cc1N1CCC(N(C)C)CC1.Cl [crystal form A] | 93.3 ng/mL | 1379 ng·h/mL | 7.44 h | 99.45% | 3.0% | 4.3% | no | 3.4% | no | –
4 | C=CC(=O)Nc1cc(Nc2ncc(F)c(-c3cnn(C)c3)n2)c(OC)cc1N1CCC(N(C)C)CC1.O=P(O)(O)O [crystal form B] | 93.2 ng/mL | 1265 ng·h/mL | 7.04 h | 99.56% | 4.1% | 4.6% | no | 4.5% | no | crystal form before and after the DVS test (XRPD) ([7]; 25° C.): does not change
5 | C=CC(=O)Nc1cc(Nc2ncc(F)c(-c3cnn(C)c3)n2)c(OC)cc1N1CCC(N(C)C)CC1.O=C(O)/C=C\C(=O)O [crystal form C-1] | 86.3 ng/mL | 1233 ng·h/mL | 7.92 h | 99.39% | 0.1% | 1.2% | no | 1.3% | no | crystal form before and after the DVS test (XRPD) ([7]; 25° C.): did not change; hygroscopicity ([7]; DVS, 25° C.): slightly hygroscopic; moisture absorbed ([7]; DVS): 0.3%; stability relationship crystal form C-1 / C-2 ([8]; acetone, room temperature and 50° C., stirring 5 minutes): higher thermodynamic stability than crystal form C-2; crystal form and HPLC purity before and after the test [9]: did not change
6 | C=CC(=O)Nc1cc(Nc2ncc(F)c(-c3cnn(C)c3)n2)c(OC)cc1N1CCC(N(C)C)CC1.O=C(O)C[C@H](O)C(=O)O [crystal form D] | 84.4 ng/mL | 1202 ng·h/mL | 6.63 h | 99.37% | 1.6% | 1.3% | no | 1.2% | no | –
7 | C=CC(=O)Nc1cc(Nc2ncc(F)c(-c3cnn(C)c3)n2)c(OC)cc1N1CCC(N(C)C)CC1.O=C(O)CCCCC(=O)O [crystal form E] | 117 ng/mL | 1660 ng·h/mL | 7.46 h | 99.30% | 0.1% | 0.5% | no | 0.4% | no | crystal form before and after the DVS test (XRPD) ([7]; 25° C.): did not change; hygroscopicity ([7]; DVS, 25° C.): slightly hygroscopic; moisture absorbed ([7]; DVS): 0.5%
8 | C=CC(=O)Nc1cc(Nc2ncc(F)c(-c3cnn(C)c3)n2)c(OC)cc1N1CCC(N(C)C)CC1 [crystal form II] | – | – | – | – | – | – | – | – | – | weight loss in DVS ([7]; 25° C., humidity above 10% RH): essentially no weight loss; also recorded: almost no weight loss; water absorbed ([7]; DVS, 25° C., at 95% RH, after dewatering below 10% RH): 6.9%; stability relationship crystal form II / IV ([8]; room temperature and 50° C.): more stable than hydrate crystal form IV; stability relationship crystal form I / II ([8]; acetone/H2O, aw 0.2/0.4/0.6/0.8, room temperature, three days): more stable
9 | C=CC(=O)Nc1cc(Nc2ncc(F)c(-c3cnn(C)c3)n2)c(OC)cc1N1CCC(N(C)C)CC1 [crystal form IV] | – | – | – | – | – | – | – | – | – | stability relationship crystal form II / IV ([8]; room temperature and 50° C.): quickly converted to hydrate crystal form II
10 | C=CC(=O)Nc1cc(Nc2ncc(F)c(-c3cnn(C)c3)n2)c(OC)cc1N1CCC(N(C)C)CC1 [crystal form I] | – | – | – | – | – | – | – | – | – | humidity at turning point of DVS isotherm (transition from anhydrous crystal form I to hydrate form II) ([7]; 25° C.): 20 % RH
11 | C=CC(=O)Nc1cc(Nc2ncc(F)c(-c3cnn(C)c3)n2)c(OC)cc1N1CCC(N(C)C)CC1 [the free base of compound of formula X, N-(2-(4-(dimethylamino)piperidin-1-yl)-5-(5-fluoro-4-(1-methyl-1H-pyrazol-4-yl)pyrimidin-2-ylamino)-4-methoxyphenyl)acrylamide] | – | – | – | 99.23% | 5.1% | 5.3% | no | 6.2% | no | solubility at 1 h ([10]; fasting state simulated intestinal fluid (FaSSIF), FaSSIF, after 1 hour of solid dispersion): 4200 µg/mL; solubility at 1 h ([10]; feeding state simulated intestinal fluid (FeSSIF), FeSSIF, after 1 hour of solid dispersion): ≥ 10500 µg/mL; solubility at 1 h ([10]; simulated gastric fluid (SGF), simulated gastric fluid, SGF, after 1 hour of solid dispersion): ≥ 8500 µg/mL; solubility at 1 h ([10]; fourth solvent (head is an image; water), after 1 hour): 10 µg/mL; inhibitory activities against EGFR wild-type enzyme, in words (EGFR WT kinase): weak inhibitory activities; inhibitory activities against EGFR mutant cells (H1975 cells), in words (H1975 cells [2]): strong inhibitory activities; inhibitory activities against EGFR wild-type cells (A431 cells), in words (A431 cells [4]): weak inhibitory activities
12 | maleate | – | – | – | – | – | – | – | – | – | Solubility S ([11]; 1,4-dioxane): S < 1.0 mg/ml; Solubility S ([11]; 2-methyltetrahydrofuran): S < 0.9 mg/ml; Solubility S ([11]; N,N-dimethylacetamide): S > 20.0 mg/ml; Solubility S ([11]; N-methylpyrrolidone): S > 23.0 mg/ml; Solubility S ([11]; acetone): S < 1.1 mg/ml; Solubility S ([11]; dimethyl sulfoxide): S > 22.0 mg/ml; Solubility S ([11]; ethanol): S < 1.1 mg/ml; Solubility S ([11]; ethyl acetate): S < 0.9 mg/ml; Solubility S ([11]; isopropanol): S < 0.9 mg/ml; Solubility S ([11]; isopropyl acetate): S < 1.0 mg/ml; Solubility S ([11]; methyl isobutyl ketone): S < 0.9 mg/ml; Solubility S ([11]; methyl tert-butyl ether): S < 1.0 mg/ml; Solubility S ([11]; n-hexane): S < 1.0 mg/ml; Solubility S ([11]; tetrahydrofuran): S < 1.2 mg/ml; Solubility S ([11]; toluene): S < 1.1 mg/ml
